28 molecules from US9884063B2, “Amido-substituted azole compounds” (Bayer Pharma Aktiengesellschaft, priority 2014, dated 2018) can be followed below.

Each structure is given as a SMILES string.

The target in the assay is T1, TNKS2 (Homo sapiens, UniProt Q9H2K2).
T1 sequence (Q9H2K2 1-1166): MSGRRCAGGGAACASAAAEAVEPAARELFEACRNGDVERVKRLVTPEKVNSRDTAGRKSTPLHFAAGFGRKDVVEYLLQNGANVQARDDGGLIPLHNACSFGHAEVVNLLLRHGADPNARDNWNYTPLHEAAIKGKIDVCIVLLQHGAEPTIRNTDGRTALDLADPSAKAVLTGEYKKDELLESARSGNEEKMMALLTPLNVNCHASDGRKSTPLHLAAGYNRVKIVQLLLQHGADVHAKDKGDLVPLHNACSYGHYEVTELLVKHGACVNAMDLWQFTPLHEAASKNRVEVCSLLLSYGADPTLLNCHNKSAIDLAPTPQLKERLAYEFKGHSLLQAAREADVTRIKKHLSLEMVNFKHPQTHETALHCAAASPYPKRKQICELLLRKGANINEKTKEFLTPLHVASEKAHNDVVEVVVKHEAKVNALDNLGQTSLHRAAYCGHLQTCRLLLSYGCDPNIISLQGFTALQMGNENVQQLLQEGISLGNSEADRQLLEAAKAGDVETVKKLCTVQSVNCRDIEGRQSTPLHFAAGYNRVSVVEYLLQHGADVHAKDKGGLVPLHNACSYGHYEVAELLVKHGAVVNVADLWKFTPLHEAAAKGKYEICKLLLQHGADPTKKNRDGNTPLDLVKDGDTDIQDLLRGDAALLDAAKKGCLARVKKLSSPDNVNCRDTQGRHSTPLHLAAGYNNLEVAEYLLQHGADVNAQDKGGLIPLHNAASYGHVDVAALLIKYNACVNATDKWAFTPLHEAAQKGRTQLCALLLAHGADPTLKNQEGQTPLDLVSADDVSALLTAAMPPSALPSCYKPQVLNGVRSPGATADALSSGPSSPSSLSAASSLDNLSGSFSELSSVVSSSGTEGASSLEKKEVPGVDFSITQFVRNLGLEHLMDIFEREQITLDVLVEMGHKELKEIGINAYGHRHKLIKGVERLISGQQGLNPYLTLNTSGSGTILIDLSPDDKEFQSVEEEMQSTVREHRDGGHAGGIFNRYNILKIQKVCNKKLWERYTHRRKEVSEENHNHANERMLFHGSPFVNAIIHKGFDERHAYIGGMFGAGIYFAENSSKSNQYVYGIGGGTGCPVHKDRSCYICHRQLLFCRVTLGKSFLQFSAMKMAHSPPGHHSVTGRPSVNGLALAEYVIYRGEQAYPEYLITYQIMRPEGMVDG
Briefly: Modified TNKS2 Assay 2 (auto-parsylation, [3H]-NAD+ SPA). In kind it is biochemical. As to conditions: 6 nM TNKS2, 96 well.
`O=C(Nc1ccc(NC(=O)c2[nH]cnc2C(=O)NC2CC2)cc1)c1cc(F)c(F)cc1Cl` [Example 51, N^5-{4-[(2-chloro-4,5-difluorobenzoyl)amino]phenyl}-N^4-cyclopropyl-1H-imidazole-4,5-dicarboxamide] returned an IC50 of 50 nM. In other words, the double-digit nanomolar range. As to `CNC(=O)c1nc[nH]c1C(=O)Nc1ccc(NC(=O)c2ccc(F)c(Cl)c2F)cc1` [Example 359, N^5-{4-[(3-chloro-2,4-difluorobenzoyl)amino]phenyl}-N^4-methyl-1H-imidazole-4,5-dicarboxamide], the IC50 was above 10000 nM.

For the molecule `Cc1cc(NC(=O)c2[nH]cnc2C(=O)NCCN(C)C)ccc1NC(=O)c1ccc(F)cc1Cl` [Example 84, N^5-{4-[(2-chloro-4-fluorobenzoyl)amino]-3-methylphenyl}-N^4-[2-(dimethylamino)ethyl]-1H-imidazole-4,5-dicarboxamide], the half-maximal inhibitory concentration (IC50) worked out at 260 nM. The result for `CNC(=O)c1nc[nH]c1C(=O)Nc1ccc(NC(=O)c2c(C)cccc2F)cc1` [Example 375, N^5-{4-[(2-fluoro-6-methylbenzoyl)amino]phenyl}-N^4-methyl-1H-imidazole-4,5-dicarboxamide] reads 1200 nM. The molecule `CNC(=O)c1nc[nH]c1C(=O)Nc1ccc(NC(=O)c2ccc(C)c(Cl)c2)cc1` [Example 344, N^5-{4-[(3-chloro-4-methylbenzoyl)amino]phenyl}-N^4-methyl-1H-imidazole-4,5-dicarboxamide] displayed a half-maximal inhibitory concentration (IC50) above 10000 nM.

With `CNC(=O)c1nc[nH]c1C(=O)Nc1ccc(NC(=O)c2cc(C(F)(F)F)ccc2Cl)cc1` [Example 352, N^5-(4-{[2-chloro-5-(trifluoromethyl)benzoyl]amino}phenyl)-N^4-methyl-1H-imidazole-4,5-dicarboxamide], half-maximal inhibition (IC50) was put at 1300 nM. Regarding `CNC(=O)c1nc[nH]c1C(=O)Nc1ccc(NC(=O)c2c(C)cccc2Cl)cc1` [Example 343, N^5-{4-[(2-chloro-6-methylbenzoyl)amino]phenyl}-N^4-methyl-1H-imidazole-4,5-dicarboxamide], the IC50 came out at 1700 nM. As for `COC(=O)c1nc[nH]c1C(=O)Nc1ccc(NC(=O)c2ccc(F)cc2Cl)c(F)c1` [Example 71, methyl 5-({4-[(2-chloro-4-fluorobenzoyl)amino]-3-fluorophenyl}carbamoyl)-1H-imidazole-4-carboxylate], the IC50 was determined as 110 nM. Against the preceding molecule, the IC50 is about 15-fold lower. With `CNC(=O)c1nc[nH]c1C(=O)Nc1ccc(NC(=O)c2cc(F)ccc2OC)cc1` [Example 364, N^5-{4-[(5-fluoro-2-methoxybenzoyl)amino]phenyl}-N^4-methyl-1H-imidazole-4,5-dicarboxamide] the figure was 7900 nM; with `CNC(=O)c1nc[nH]c1C(=O)Nc1ccc(NC(=O)c2ncccc2C)cc1` [Example 356, N^4-methyl-N^5-(4-{[(3-methylpyridin-2-yl)carbonyl]amino}phenyl)-1H-imidazole-4,5-dicarboxamide], 940 nM. With `NCCNC(=O)c1[nH]cnc1C(=O)Nc1ccc(NC(=O)c2ccc(F)cc2Cl)cc1` [Example 290, N^5-(2-aminoethyl)-N^4-{4-[(2-chloro-4-fluorobenzoyl)amino]phenyl}-1H-imidazole-4,5-dicarboxamide] the figure was 110 nM; with `CC(CN1CCOCC1)NC(=O)c1[nH]cnc1C(=O)Nc1ccc(NC(=O)c2ccc(F)cc2Cl)cc1` (single isomer, unassigned; enantiomer 2) [Example 270, N^4-{4-[(2-chloro-4-fluorobenzoyl)amino]phenyl}-N^5-[1-(morpholin-4-yl)propan-2-yl]-1H-imidazole-4,5-dicarboxamide (enantiomer 2)], 3 nM; with `O=C(Nc1ccc(NC(=O)c2[nH]cnc2C(=O)NCCc2cccnc2)cc1)c1ccc(F)cc1Cl` [Example 405, N^5-{4-[(2-chloro-4-fluorobenzoyl)amino]phenyl}-N^4-[2-(pyridin-3-yl)ethyl]-1H-imidazole-4,5-dicarboxamide], 100 nM. With `CNC(=O)c1nc[nH]c1C(=O)Nc1ccc(NC(=O)c2cc(C)ccn2)cc1` [Example 363, N^4-methyl-N^5-(4-{[(4-methylpyridin-2-yl)carbonyl]amino}phenyl)-1H-imidazole-4,5-dicarboxamide] the figure was above 10000 nM. Take `O=C(Nc1ccc(NC(=O)c2[nH]cnc2C(=O)N2CC3(COC3)C2)cc1)c1cc(F)c(F)cc1Cl` [Example 52, N-{4-[(2-chloro-4,5-difluorobenzoyl)amino]phenyl}-4-(2-oxa-6-azaspiro[3.3]hept-6-ylcarbonyl)-1H-imidazole-5-carboxamide]: the 50% inhibitory concentration (IC50) is 220 nM. `CNC(=O)c1nc[nH]c1C(=O)Nc1ccc(NC(=O)c2c(F)ccc(F)c2Cl)cc1` [Example 374, N^5-{4-[(2-chloro-3,6-difluorobenzoyl)amino]phenyl}-N^4-methyl-1H-imidazole-4,5-dicarboxamide] gave an IC50 of 1300 nM. With `O=C(Nc1ccc(NC(=O)c2nc[nH]c2C(=O)N[C@H]2CCNC2)cc1)c1ccc(F)cc1Cl` [Example 281, N^4-{4-[(2-chloro-4-fluorobenzoyl)amino]phenyl}-N^5-[(3S)-pyrrolidin-3-yl]-1H-imidazole-4,5-dicarboxamide] the figure was 70 nM. With `CNC(=O)c1nc[nH]c1C(=O)Nc1ccc(NC(=O)c2cccc(F)c2Cl)cc1` [Example 370, N^5-{4-[(2-chloro-3-fluorobenzoyl)amino]phenyl}-N^4-methyl-1H-imidazole-4,5-dicarboxamide] the figure was 2200 nM; with `CNC(=O)c1nc[nH]c1C(=O)Nc1ccc(NC(=O)c2cncc(C)c2)cc1` [Example 366, N^4-methyl-N^5-(4-{[(5-methylpyridin-3-yl)carbonyl]amino}phenyl)-1H-imidazole-4,5-dicarboxamide], above 10000 nM; with `O=C(Nc1ccc(NC(=O)c2[nH]cnc2C(=O)NCCN2CCCCC2)cc1F)c1ccc(F)cc1` [Example 78, N^5-{3-fluoro-4-[(4-fluorobenzoyl)amino]phenyl}-N^4-[2-(piperidin-1-yl)ethyl]-1H-imidazole-4,5-dicarboxamide], above 10000 nM. With `CNC(=O)c1nc[nH]c1C(=O)Nc1ccc(NC(=O)c2nccnc2Cl)cc1` [Example 372, N^5-(4-{[(3-chloropyrazin-2-yl)carbonyl]amino}phenyl)-N^4-methyl-1H-imidazole-4,5-dicarboxamide] the figure was 4800 nM; with `O=C(Nc1ccc(NC(=O)c2nc[nH]c2C(=O)NCCN2CCCCC2)cc1)c1ccccc1Cl` [Example 381, N^4-{4-[(2-chlorobenzoyl)amino]phenyl}-N^5-[2-(piperidin-1-yl)ethyl]-1H-imidazole-4,5-dicarboxamide], 20 nM; with `CNC(=O)c1nc[nH]c1C(=O)Nc1ccc(NC(=O)c2ccc(F)c(Cl)c2)cc1` [Example 340, N^5-{4-[(3-chloro-4-fluorobenzoyl)amino]phenyl}-N^4-methyl-1H-imidazole-4,5-dicarboxamide], above 10000 nM. The molecule `CN(C)CCNC(=O)c1nc[nH]c1C(=O)Nc1ccc(NC(=O)c2ccccc2Cl)c(F)c1` [Example 81, N^5-{4-[(2-chlorobenzoyl)amino]-3-fluorophenyl}-N^4-[2-(dimethylamino)ethyl]-1H-imidazole-4,5-dicarboxamide] returned an IC50 of 160 nM. `CNC(=O)c1nc[nH]c1C(=O)Nc1ccc(NC(=O)c2cc(F)ccc2Cl)cc1` [Example 361, N^5-{4-[(2-chloro-5-fluorobenzoyl)amino]phenyl}-N^4-methyl-1H-imidazole-4,5-dicarboxamide] came in with an IC50 of 100 nM. With `O=C(Nc1ccc(NC(=O)c2[nH]cnc2C(=O)NCCc2ccccn2)cc1)c1ccc(F)cc1Cl` [Example 387, N^5-{4-[(2-chloro-4-fluorobenzoyl)amino]phenyl}-N^4-[2-(pyridin-2-yl)ethyl]-1H-imidazole-4,5-dicarboxamide] the figure was 150 nM. Take `CNC(=O)c1nc[nH]c1C(=O)Nc1ccc(NC(=O)c2cc(OC(F)(F)F)ccc2Br)cc1` [Example 64, N^5-(4-{[2-bromo-5-(trifluoromethoxy)benzoyl]amino}phenyl)-N^4-methyl-1H-imidazole-4,5-dicarboxamide]: the half-inhibitory concentration (IC50) is above 10000 nM. `O=C(Nc1ccc(NC(=O)c2[nH]cnc2C(=O)NCCC2CC2)cc1)c1ccc(F)cc1Cl` [Example 43, N^5-{4-[(2-chloro-4-fluorobenzoyl)amino]phenyl}-N^4-(2-cyclopropylethyl)-1H-imidazole-4,5-dicarboxamide]: the 50% inhibitory concentration (IC50) was above 10000 nM.
